# Test results published in patent US7361662B2, “Pyridopyrimidinone compounds, method for production thereof and medicaments comprising the same” (Les Laboratoires Servier, priority 2002, dated 2008).
# Test system: obese ob/ob mouse (model of obesity-associated insulin resistance)
# Assay: Hypolipaemic activity in the obese ob/ob mouse
# Type: in vivo
# Protocol: The products of the invention were tested in vivo in the obese ob/ob mouse, used as a model of obesity-associated insulin resistance.
SMILES,reduction of triglycerides (250 mg/kg per os),reduction of triglycerides (125 mg/kg per os)
CN(C)C(=N)N=C(N)N [metformin],the same reduction is obtained,–
"CCCN(CCC)c1nc2c(N3CCCCCC3)nc(N3CCOCC3)cc2c(=O)[nH]1 [Example 6, 8-(1-Azepanyl)-2-(dipropylamino)-6-(4-morpholinyl)pyrido[3,4-d]pyrimidin-4(3H)-one]",–,significantly reduces the triglycerides
